Laboratory results: patent EP3315028B1, “USE OF INHIBITORS OF NLP PROTEINS AS PHYTOPHARMACEUTICALS FOR PLANT PATHOGEN CONTROL” (Kemijski Institut, priority 2016, dated 2018)
“Also recorded” adds a separate entry of the source.

How the values were obtained:
Phytophthora infestans = type: in vivo, Phytophthora infestans (strain 88069); conditions: for growth of the pathogen P. infestans on potato leaves, visual analysis: 1 mM compound in 10 µL drops with 5 × 10^4 mL^-1 zoospores, 4 days, 18 °C, vs control compound (Figure 6A); for amount of pathogen DNA by real-time PCR, control samples vs samples with compound: 1 mM compound, potato leaves 4 days after infection, Student's t-test, *** P <0.001 (Figure 6B)
tobacco leaves = assay: Control infiltration of tobacco leaves with compounds alone (necrosis); conditions: compound at the final 1 mM concentration, no NLP protein, 5 % DMSO (Figure 4)
Experimental: This biological test may be used to assess the impact of compounds on the functionality of NLPs. The NLP protein solution is injected in the absence or presence of the compounds into tobacco leaves of healthy plants. The plants are then observed for 1-3 days and checked for the presence of necrosis.
Compounds: Compounds were prepared as stock solutions with a concentration of 10 mM in DMSO. Appropriate working solutions were prepared by appropriate dilution of the stock solution. The concentration of DMSO in the test solution was 5 %.
Tobacco plants: Tobacco plants (Nicotiana tabacum White Burley) were cultured in chambers for growing plants under controlled conditions of light, humidity and temperature up to the age of 5-7 weeks.
Protein solution, compound and appropriate volume of ultrapure water were mixed in Eppendorf tubes. The mixture was mixed well and injected in the lower epidermis of tobacco leaves. We have injected 50 µL of solution. The area of injected solution was labelled on tobacco leaves. We used ultrapure water, 5 % DMSO, protein solutions of NLPs at different concentrations and appropriate dilutions of compounds as control solutions. The area on the lower side of the leaf, which was infiltrated with solutions, was photographed immediately after injection, and then after 24, 48 and 72 hours. On the third day the plant leaf was photographed also from the top side.

With `Cc1ccc2occ(C3NC(C(=O)O)CS3)c(=O)c2c1` (stereo not drawn) [Compound I, 2-(6-methyl-4-oxochromen-3-yl)-1,3-thiazolidin-3-ium-4-carboxylate] the “growth of the pathogen P. infestans on potato leaves, visual analysis” value (Phytophthora infestans) was “able to inhibit growth of the pathogen”, the “amount of pathogen DNA by real-time PCR, control samples vs samples with compound” value (Phytophthora infestans) was “statistically significant amounts of pathogen DNA in control samples” and the “necrosis of tobacco leaves caused by compound solution alone” value (tobacco leaves) was “did not cause necrosis; also recorded: Necrosis was not caused”.

In the case of `COc1ccc(Nc2ccccc2C(=O)O)cc1` [Compound IIa, 2-[(4-methoxyphenyl)amino]benzoic acid], the “growth of the pathogen P. infestans on potato leaves, visual analysis” value (Phytophthora infestans) is reported as “able to inhibit growth of the pathogen”, the “amount of pathogen DNA by real-time PCR, control samples vs samples with compound” value (Phytophthora infestans) is reported as “statistically significant amounts of pathogen DNA in control samples” and the “necrosis of tobacco leaves caused by compound solution alone” value (tobacco leaves) is reported as “did not cause necrosis; also recorded: Necrosis was not caused”.
